Earlier results on 1 compound are cited in patent publication US20050233013A1, “Methods for enhancing the transport of glucose for balancing blood sugar levels” (priority 2004, published 2005).

The data set relates to pancreatic beta cell. To be noted: micromolar concentrations; glucose dependent; Sauvaire et al, Diabetes 47:206 (1998).

As for `C[C@@H]([C@H](C)O)[C@H](N)C(=O)O` [major isomer (2S, 3R, 4S), (2S, 3R, 4S)-4-hydroxyisoleucine], the glucose-induced insulin secretion result was “stimulate glucose-induced insulin secretion”.
